Measurements from US20060069132A1, “Azolecarboxamide herbicides” (priority 2004, published 2006).

Experiments:
green foxtail [1] = experiment: Test E pre-/postemergence herbicide test; type: in vivo, Setaria viridis; conditions: Preemergence
Outline: (§1)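 Seeds were planted and treated preemergence with test chemicals in a non-phytotoxic solvent mixture containing surfactant; plants at 2 to 18 cm (1- to 4-leaf stage) received postemergence applications of the same formulation. After 12 to 14 days in a greenhouse, injury was visually rated against untreated controls on a 0 to 100 scale.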

green foxtail [2] = experiment: Test C postemergence herbicide test; type: in vivo, Setaria viridis
Outline: (§2)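 Postemergence sprays were applied to plants 2 to 18 cm tall (1- to 4-leaf stage); in the flooded paddy test, barnyardgrass was grown to the 2-leaf stage. After 12 to 14 days in a greenhouse, injury was visually rated against untreated controls on a 0–100 scale (100 = complete control).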

southern sandbur = experiment: Test E pre-/postemergence herbicide test; type: in vivo, Cenchrus echinatus; conditions: Preemergence
Outline: as §1

prickly sida = experiment: Test E pre-/postemergence herbicide test; type: in vivo, Sida spinosa; conditions: Preemergence
Outline: as §1

field bindweed = experiment: Test E pre-/postemergence herbicide test; type: in vivo, Convolvulus arvensis; conditions: Preemergence
Outline: as §1

pitted morningglory = experiment: Test E pre-/postemergence herbicide test; type: in vivo, Ipomoea lacunosa; conditions: Preemergence
Outline: as §1

mustard = experiment: Test E pre-/postemergence herbicide test; type: in vivo, Brassica nigra; conditions: Preemergence
Outline: as §1

purple nutsedge = experiment: Test E pre-/postemergence herbicide test; type: in vivo, Cyperus rotundus; conditions: Preemergence, 62 g ai/ha; scale 0 to 100
Outline: as §1

Italian ryegrass = experiment: Test C postemergence herbicide test; type: in vivo, Lolium multiflorum; conditions: postemergence, scale 0 to 100
Outline: as §2

dallisgrass = experiment: Test E pre-/postemergence herbicide test; type: in vivo, Paspalum dilatatum; conditions: Preemergence
Outline: as §1

downy bromegrass = experiment: Test C postemergence herbicide test; type: in vivo, Bromus tectorum
Outline: as §2

itchgrass = experiment: Test E pre-/postemergence herbicide test; type: in vivo, Rottboellia cochinchinensis; conditions: Preemergence
Outline: as §1

[3] = 250 g ai/ha, scale 0 (no effect) to 100 (complete control)
[4] = 500 g ai/ha, scale 0 (no effect) to 100 (complete control)
[5] = Postemergence, 250 g ai/ha, scale 0 to 100, 0 no effect, 100 complete control
[6] = postemergence, 125 g ai/ha, scale 0 to 100
[7] = postemergence, 62 g ai/ha, scale 0 to 100

CCc1nn(C(C)(C)C)nc1C(=O)Nc1cccc(C(=O)N(C)CC)c1 [Compound 384]
Plant response rating, Foxtail, Green (green foxtail [1]; 62 g ai/ha, scale 0 to 100): 10 | Plant response rating, Foxtail, Green (green foxtail [1]; [3]): 40 | Plant response rating, Foxtail, Green (green foxtail [1]; [4]): 95 | Plant response rating, Foxtail, Green (green foxtail [2]; [5]): 65 | Plant response rating, Foxtail, Green (green foxtail [2]; [6]): 60 | Plant response rating, Foxtail, Green (green foxtail [2]; [7]): 60 | Plant response rating, Sandbur (southern sandbur; 62 g ai/ha, scale 0 to 100): 10 | Plant response rating, Sandbur (southern sandbur; 125 g ai/ha, scale 0 to 100): 60 | Plant response rating, Sandbur (southern sandbur; [3]): 70 | Plant response rating, Sandbur (southern sandbur; [4]): 100 | Plant response rating, Prickly Sida (prickly sida; 62 g ai/ha, scale 0 to 100): 60 | Plant response rating, Prickly Sida (prickly sida; [3]): 60 | Plant response rating, Prickly Sida (prickly sida; [4]): 95 | Plant response rating, Bindweed, Field (field bindweed; 62 g ai/ha, scale 0 to 100): 80 | Plant response rating, Bindweed, Field (field bindweed; [3]): 80 | Plant response rating, Bindweed, Field (field bindweed; [4]): 95 | Plant response rating, Morningglory (pitted morningglory; 62 g ai/ha, scale 0 to 100): 10 | Plant response rating, Morningglory (pitted morningglory; 125 g ai/ha, scale 0 to 100): 60 | Plant response rating, Morningglory (pitted morningglory; [3]): 80 | Plant response rating, Morningglory (pitted morningglory; [4]): 90 | Plant response rating, Black Mustard (mustard; 62 g ai/ha, scale 0 to 100): 60 | Plant response rating, Black Mustard (mustard; 125 g ai/ha, scale 0 to 100): 80 | Plant response rating, Black Mustard (mustard; [3]): 85 | Plant response rating, Black Mustard (mustard; [4]): 100 | Plant response rating, Nutsedge, Purple (purple nutsedge): 60 | Plant response rating, Ryegrass, Italian (Italian ryegrass; 125 g ai/ha): 55 | Plant response rating, Ryegrass, Italian (Italian ryegrass; 62 g ai/ha): 45 | Plant response rating, Dallisgrass (dallisgrass; 62 g ai/ha, scale 0 to 100): 10 | Plant response rating, Dallisgrass (dallisgrass; 125 g ai/ha, scale 0 to 100): 70 | Plant response rating, Dallisgrass (dallisgrass; [3]): 75 | Plant response rating, Dallisgrass (dallisgrass; [4]): 90 | Plant response rating, Bromegrass, Downy (downy bromegrass; [5]): 55 | Plant response rating, Bromegrass, Downy (downy bromegrass; [6]): 45 | Plant response rating, Bromegrass, Downy (downy bromegrass; postemergence, 31 g ai/ha, scale 0 to 100): 30 | Plant response rating, Bromegrass, Downy (downy bromegrass; [7]): 40 | Plant response rating, Itchgrass (itchgrass; 62 g ai/ha, scale 0 to 100): 40 | Plant response rating, Itchgrass (itchgrass; 125 g ai/ha, scale 0 to 100): 60 | Plant response rating, Itchgrass (itchgrass; [3]): 70 | Plant response rating, Itchgrass (itchgrass; [4]): 85
